Assay results reported in patent publication US9914737B2, “Triazolopyrimidinone or triazolopyridinone derivatives, and use thereof” (ST PHARM CO., LTD., priority 2014, dated 2018).

biological target: T1, tankyrase 1 (Homo sapiens, UniProt O95271); experiment: Analysis of activity of tankyrase 1 (Trevigen kit, ELISA absorbance at 450 nm); assay type: biochemical; settings: not given
T1 construct: purchased Trevigen 4700-096-K
T1 sequence (O95271 1-1327): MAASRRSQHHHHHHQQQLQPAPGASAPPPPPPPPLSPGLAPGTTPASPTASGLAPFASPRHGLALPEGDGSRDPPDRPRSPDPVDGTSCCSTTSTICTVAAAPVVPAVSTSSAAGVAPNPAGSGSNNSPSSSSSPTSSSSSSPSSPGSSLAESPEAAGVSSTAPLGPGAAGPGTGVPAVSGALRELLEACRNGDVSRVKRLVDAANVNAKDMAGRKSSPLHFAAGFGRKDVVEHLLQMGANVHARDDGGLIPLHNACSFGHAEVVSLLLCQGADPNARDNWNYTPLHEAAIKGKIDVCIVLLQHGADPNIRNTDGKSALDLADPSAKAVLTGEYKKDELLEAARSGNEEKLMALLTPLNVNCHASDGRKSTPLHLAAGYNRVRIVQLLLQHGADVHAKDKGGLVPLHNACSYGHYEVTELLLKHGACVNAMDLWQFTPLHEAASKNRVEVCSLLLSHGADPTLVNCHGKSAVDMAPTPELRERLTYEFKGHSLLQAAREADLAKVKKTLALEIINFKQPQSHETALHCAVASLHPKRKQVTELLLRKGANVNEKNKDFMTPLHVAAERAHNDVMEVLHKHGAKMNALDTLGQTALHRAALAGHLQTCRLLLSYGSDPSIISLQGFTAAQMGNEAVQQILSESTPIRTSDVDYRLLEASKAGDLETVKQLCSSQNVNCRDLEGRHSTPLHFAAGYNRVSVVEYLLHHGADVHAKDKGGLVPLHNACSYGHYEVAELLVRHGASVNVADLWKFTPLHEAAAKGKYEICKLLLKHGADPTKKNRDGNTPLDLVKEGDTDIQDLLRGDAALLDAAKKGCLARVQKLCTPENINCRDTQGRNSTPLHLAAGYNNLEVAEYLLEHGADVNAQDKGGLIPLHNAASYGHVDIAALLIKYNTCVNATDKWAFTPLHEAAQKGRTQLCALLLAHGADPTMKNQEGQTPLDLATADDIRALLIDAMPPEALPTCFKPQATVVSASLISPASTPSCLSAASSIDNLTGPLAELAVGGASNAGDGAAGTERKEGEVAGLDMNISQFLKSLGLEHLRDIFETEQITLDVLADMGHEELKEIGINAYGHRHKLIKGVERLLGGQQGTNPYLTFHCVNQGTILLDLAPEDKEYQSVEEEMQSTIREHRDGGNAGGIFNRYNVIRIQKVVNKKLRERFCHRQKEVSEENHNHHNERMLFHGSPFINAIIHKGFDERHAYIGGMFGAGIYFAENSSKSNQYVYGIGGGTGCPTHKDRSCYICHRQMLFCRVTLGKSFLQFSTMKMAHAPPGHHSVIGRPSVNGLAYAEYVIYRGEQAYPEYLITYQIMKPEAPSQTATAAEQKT
Method: Activities of novel compounds synthesized according to Examples 1 to 72 against tankyrase 1 were analyzed using a Trevigen kit (Cat. No. 4700-096-K). Poly PAR histone protein-coated 96-well plate, anti-PAR monoclonal antibody and goat anti-mouse IgG-HRP were used for measurement of absorbance by ELISA method. Specifically, 20× I-PAR assay buffer was diluted to 1× by adding water, and 50 μL of the diluted buffer was added to each well of the 96-well plate followed by reacting at rt for 30 min. Then, the supernatant was completely removed from each well and 10 μL of 1× I-PAR assay buffer and 15 μL of assay substrate were added to each well along with 1 μL of a 50× solution of inhibitors to be tested, which were the compounds obtained in the Examples 1 to 72. 10 mUnits/μL of tankyrase 1 enzyme was diluted 50-fold with 1× I-PAR assay buffer and 25 μL of the diluted enzyme was added to each well and reacted while stirring at rt for 30 min. One without any compound of the present invention was used as a positive control and another containing 1× I-PAR assay buffer with the same volume instead of tankyrase 1 enzyme was used as a negative control. Upon completion of the reaction, 200 μL of PBSX, which was prepared by adding 0.1% triton X-100 to PBS, was added and removed and this washing process was repeated twice. Washing was repeated twice more using PBS in the same manner. 5× antibody diluent was diluted with distilled water to 1× concentration, 50 μL of the diluted goat anti-mouse IgG-HRP to 1/2000 was added to each well and reacted while stirring at rt for 30 min. Washes were carried out twice using PBSX and PBS, respectively. After adding 50 μL of TACS-sapphire to each well of the plate, the plate was blocked from light to react for 10 min to 15 min and the color of the reaction solution turned blue. To stop the reaction, 50 μL of 0.2N HCl was added to turn the solution yellow. Finally, the absorbance of the resulting solution was measured at 450 nm.

IC50 [nM] | Structure (SMILES)
22.7 | COCCOc1cc(F)c(N2CCN(c3cc4c(nnn4C)c(=O)[nH]3)CC2)c(F)c1 [compound 53, 6-(4-(2,6-Difluoro-4-(2-methoxyethoxy)phenyl)piperazin-1-yl)-1-methyl-1H[1,2,3]triazolo[4,5-c]pyridin-4(5H)-one]
66.7 | Cn1nnc2c(=O)[nH]c(N3CCN(c4ccccc4F)CC3)nc21 [compound 1, 5-(4-(2-Fluorophenyl)piperazin-1-yl)-3-methyl-3H-[1,2,3]triazolo[4,5-d]pyrimidin-7(6H)-one]
22.1 | Cn1nnc2c(=O)[nH]c(N3CCN(c4c(F)cc(OC5COC5)cc4F)CC3)cc21 [compound 62, 6-(4-(2,6-Difluoro-4-(oxetan-3-yloxy)phenyl)piperazin-1-yl)-1-methyl-1H-[1,2,3]triazolo[4,5-c]pyridin-4(5H)-one]

same assay, conditions: tankyrase 1 enzyme, Trevigen kit Cat. No. 4700-096-K, 30 min at rt; read-out: TNKS1 (IC50)

Structure (SMILES) | IC50 [nM]
COC(C)c1cc(F)c(N2CCN(c3cc4c(nnn4C)c(=O)[nH]3)CC2)c(F)c1 (stereo not shown) [compound 64, 6-(4-(2,6-Difluoro-4-(1-methoxyethyl)phenyl)piperazin-1-yl)-1-methyl-1H[1,2,3]triazolo[4,5-c]pyridin-4(5H)-one] | 31.2
COC(C)c1cc(F)c(N2CCN(c3nc4c(nnn4C)c(=O)[nH]3)CC2)c(F)c1 (stereo not shown) [compound 18, 5-(4-(2,6-Difluoro-4-(1-methoxyethyl)phenyl)piperazin-1-yl)-3-methyl-3H-[1,2,3]triazolo[4,5-d]pyrimidin-7(6H)-one] | 30
Cn1nnc2c(=O)[nH]c(N3CCN(c4c(F)cc(OCCN5CCC(O)C5)cc4F)CC3)nc21 (stereo not shown) [compound 41, 5-(4-(2,6-Difluoro-4-(2-(3-hydroxypyrrolidin-1-yl)ethoxy)phenyl)piperazin-1-yl)-3-methyl-3H-[1,2,3]triazolo[4,5-d]pyrimidin-7(6H)-one] | 71.3
Cn1nnc2c(=O)[nH]c(N3CCN(c4c(F)cc(OCCN5CCOCC5)cc4F)CC3)cc21 [compound 54, 6-(4-(2,6-Difluoro-4-(2-morpholinoethoxy)phenyl)piperazin-1-yl)-1-methyl-1H-[1,2,3]triazolo[4,5-c]pyridin-4(5H)-one] | 11
Cn1nnc2c(=O)[nH]c(N3CCN(c4c(F)cc(OCC(O)CO)cc4F)CC3)nc21 (stereo not shown) [compound 12, 5-(4-(4-(2,3-Dihydroxypropoxy)-2,6-difluorophenyl)piperazin-1-yl)-3-methyl-3H-[1,2,3]triazolo[4,5-d]pyrimidin-7(6H)-one] | 12.9
Cn1nnc2c(=O)[nH]c(N3CCN(c4c(F)cc(OCCN5CCOCC5)cc4F)CC3)nc21 [compound 4, 5-(4-(2,6-Difluoro-4-(2-morpholinoethoxy)phenyl)piperazin-1-yl)-3-methyl-3H-[1,2,3]triazolo[4,5-d]pyrimidin-7(6H)-one] | 38.6
Cn1nnc2c(=O)[nH]c(N3CCN(c4c(F)cc(OCCO)cc4F)CC3)nc21 [compound 7, 5-(4-(2,6-Difluoro-4-(2-hydroxyethoxy)phenyl)piperazin-1-yl)-3-methyl-3H-[1,2,3]triazolo[4,5-d]pyrimidin-7(6H)-one] | 44
CC(O)c1cc(F)c(N2CCN(c3cc4c(nnn4C)c(=O)[nH]3)CC2)c(F)c1 (stereo not shown) [compound 63, 6-(4-(2,6-Difluoro-4-(1-hydroxyethyl)phenyl)piperazin-1-yl)-1-methyl-1H[1,2,3]triazolo[4,5-c]pyridin-4(5H)-one] | 27.3
CN(C)CCOc1cc(F)c(N2CCN(c3cc4c(nnn4C)c(=O)[nH]3)CC2)c(F)c1 [compound 56, 6-(4-(4-(2-(Dimethylamino)ethoxy)-2,6-difluorophenyl)piperazin-1-yl)-1-methyl-1H-[1,2,3]triazolo[4,5-c]pyridin-4(5H)-one] | 27.5
CN1CCN(CCOc2cc(F)c(N3CCN(c4cc5c(nnn5C)c(=O)[nH]4)CC3)c(F)c2)CC1 [compound 68, 6-(4-(2,6-Difluoro-4-(2-(4-methylpiperazin-1-yl)ethoxy)phenyl)piperazin-1-yl)-1-methyl-1H-[1,2,3]triazolo[4,5-c]pyridin-4(5H)-one] | 14.2
CC(=O)OCCOc1cc(F)c(N2CCN(c3nc4c(nnn4C)c(=O)[nH]3)CC2)c(F)c1 [compound 8, 2-(3,5-Difluoro-4-(4-(3-methyl-7-oxo-6,7-dihydro-3H-[1,2,3]triazolo[4,5-d]pyrimidin-5-yl)piperazin-1-yl)phenoxy)ethyl acetate] | 46.9
CN1CCN(CCOc2cc(F)c(N3CCN(c4nc5c(nnn5C)c(=O)[nH]4)CC3)c(F)c2)C(=O)C1 [compound 38, 5-(4-(2,6-Difluoro-4-(2-(4-methyl-2-oxopiperazin-1-yl)ethoxy)phenyl)piperazin-1-yl)-3-methyl-3H-[1,2,3]triazolo[4,5-d]pyrimidin-7(6H)-one] | 43
Cn1nnc2c(=O)[nH]c(N3CCN(c4c(F)cc(OCCN)cc4F)CC3)cc21 [compound 71, 6-(4-(4-(2-Aminoethoxy)-2,6-difluorophenyl)piperazin-1-yl)-1-methyl-1H-[1,2,3]triazolo[4,5-c]pyridin-4(5H)-one] | 24.9

Continued, values first:

IC50 [nM] | Structure (SMILES)
48.7 | Cn1nnc2c(=O)[nH]c(N3CCN(c4c(F)cc(OCC(=O)N5CCCCC5)cc4F)CC3)nc21 [compound 35, 5-(4-(2,6-Difluoro-4-(2-oxo-2-(piperidin-1-yl)ethoxy)phenyl)piperazin-1-yl)-3-methyl-3H-[1,2,3]triazolo[4,5-d]pyrimidin-7(6H)-one]
40.2 | COCCN(C)Cc1cc(F)c(N2CCN(c3cc4c(nnn4C)c(=O)[nH]3)CC2)c(F)c1 [compound 65, 6-(4-(2,6-Difluoro-4-(((2-methoxyethyl)(methyl)amino)methyl)phenyl)piperazin-1-yl)-1-methyl-1H-[1,2,3]triazolo[4,5-c]pyridin-4(5H)-one]
51.4 | Cn1nnc2c(=O)[nH]c(N3CCN(c4c(F)cc(OCCN5CCC(O)CC5)cc4F)CC3)nc21 [compound 42, 5-(4-(2,6-Difluoro-4-(2-(4-hydroxypiperidin-1-yl)ethoxy)phenyl)piperazin-1-yl)-3-methyl-3H-[1,2,3]triazolo[4,5-d]pyrimidin-7(6H)-one]
411 | Cn1nnc2c(=O)[nH]c(N3CCC(c4nnn[nH]4)CC3)nc21 [compound 26, 5-(4-(1H-tetrazol-5-yl)piperidin-1-yl)-3-methyl-3H-[1,2,3]triazolo[4,5-d]pyrimidin-7(6H)-one]
331 | Cn1nnc(C2CCN(c3cc4c(nnn4C)c(=O)[nH]3)CC2)n1 [compound 66, 1-Methyl-6-(4-(2-methyl-2H-tetrazol-5-yl)piperidin-1-yl)-1H-[1,2,3]triazolo[4,5-c]pyridin-4(5H)-one]
120 | CN1CCN(CCOc2cc(F)c(N3CCN(c4nc5c(nnn5C)c(=O)[nH]4)CC3)c(F)c2)CC1 [compound 32, 5-(4-(2,6-Difluoro-4-(2-(4-methylpiperazin-1-yl)ethoxy)phenyl)piperazin-1-yl)-3-methyl-3H-[1,2,3]triazolo[4,5-d]pyrimidin-7(6H)-one]
